# Literature values, collected in patent US20240260569A1, “DISINFECTANT LIQUID, PREPARATION METHOD THEREOF AND FILM LAYER” (Shanghai Anpas New Materials Science & Technology Co., Ltd., priority 2021, published 2024).
# Read-outs that look alike come from different tables or passages of the source.
# Legend:
# [1] = aqueous solution
# [2] = relative to hypochlorite ions
structure (smiles),measurement,setting,value
O=c1nc([O-])n(Cl)c(=O)n1Cl.[Na+] [Sodium dichloroisocyanurate],active chlorine loss,[1]; within a week,about 50%
OCl [hypochlorous acid],disinfection and sterilization ability versus hypochlorite ions,[2],80 to 100 times
OCl [sodium hypochlorite],pH of a 10% solution,,around 12
same,active chlorine loss,"[1]; pH 9.4, after 14 days at 55° C.",63%
same,active chlorine loss,"[1]; pH=8.7, after 14 days at 55° C.",94%
